Measured values reported in the supplement of paper PMC10307832.

Legend:
Assay in all cases: relative viability (nuclei count vs DMSO), 5 days (fraction); higher = more cells survive
HCC-366 = tested on: HCC-366
Method in brief: (§1)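 Medians of duplicate plates are given as relative viability. That measure is the nuclei count in treated wells divided by the count in vehicle wells. Counts were taken on 4× images of lung cancer cell lines in 1536-well plates, 5 days after pin-tool dosing the day after seeding with one drug alone or a fixed anchor-drug dose plus five library-drug doses (not always all listed) in √10 steps.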

NCI-H322M = tested on: NCI-H322M
Method in brief: as §1

NCI-H2228 = tested on: NCI-H2228
Method in brief: as §1

ABC-1 = tested on: ABC-1
Method in brief: as §1

NCI-H1993 = tested on: NCI-H1993
Method in brief: as §1

EPLC-272H = tested on: EPLC-272H
Method in brief: as §1

SK-MES-1 = tested on: SK-MES-1
Method in brief: as §1

NCI-H1975 = tested on: NCI-H1975
Method in brief: as §1

EKVX = tested on: EKVX
Method in brief: as §1

NCI-H2087 = tested on: NCI-H2087
Method in brief: as §1

COR-L 105 = tested on: COR-L 105
Method in brief: as §1

NCI-H441 = tested on: NCI-H441
Method in brief: as §1

H3255 = tested on: H3255
Method in brief: as §1

NCI-H1792 = tested on: NCI-H1792
Method in brief: as §1

NCI-H2085 = tested on: NCI-H2085
Method in brief: as §1

NCI-H2009 = tested on: NCI-H2009
Method in brief: as §1

CAL-12T = tested on: CAL-12T
Method in brief: as §1

HCC-827 = tested on: HCC-827
Method in brief: as §1

NCI-H460 = tested on: NCI-H460
Method in brief: as §1

NCI-H1355 = tested on: NCI-H1355
Method in brief: as §1

Cc1csc(=NC2CCCCC2)n1/N=C/c1ccc(O)c(O)c1O [MIM1] + C[C@]1(O)C[C@@H](c2nc(-c3ccc4ccc(-c5ccccc5)nc4c3)c3c(N)nccn32)C1 [Linsitinib] (partner 1 µM)
relative viability (HCC-366; first compound 0.2 µM): 0.511
relative viability (HCC-366; first compound 0.6325 µM): 0.715
relative viability (HCC-366; first compound 2 µM): 0.565
relative viability (HCC-366; first compound 6.325 µM): 0.361
relative viability (HCC-366; first compound 20 µM): 0.0221
relative viability (NCI-H322M; first compound 0.2 µM): 1.01
relative viability (NCI-H322M; first compound 0.6325 µM): 0.981
relative viability (NCI-H322M; first compound 2 µM): 1.05
relative viability (NCI-H322M; first compound 6.325 µM): 0.905
relative viability (NCI-H322M; first compound 20 µM): 0.912
relative viability (NCI-H2228; first compound 0.2 µM): 0.752
relative viability (NCI-H2228; first compound 0.6325 µM): 0.638
relative viability (NCI-H2228; first compound 2 µM): 0.877
relative viability (NCI-H2228; first compound 6.325 µM): 0.217
relative viability (NCI-H2228; first compound 20 µM): 0.208
relative viability (ABC-1; first compound 0.2 µM): 0.769
relative viability (ABC-1; first compound 0.6325 µM): 1.14
relative viability (ABC-1; first compound 2 µM): 0.651
relative viability (ABC-1; first compound 6.325 µM): 0.388
relative viability (ABC-1; first compound 20 µM): 0.24
relative viability (NCI-H1993; first compound 0.2 µM): 0.736
relative viability (NCI-H1993; first compound 0.6325 µM): 0.715
relative viability (NCI-H1993; first compound 2 µM): 0.63
relative viability (NCI-H1993; first compound 6.325 µM): 0.68
relative viability (NCI-H1993; first compound 20 µM): 0.646
relative viability (EPLC-272H; first compound 0.2 µM): 1.06
relative viability (EPLC-272H; first compound 0.6325 µM): 1.15
relative viability (EPLC-272H; first compound 2 µM): 1.17
relative viability (EPLC-272H; first compound 6.325 µM): 1.26
relative viability (EPLC-272H; first compound 20 µM): 0.988
relative viability (SK-MES-1; first compound 0.2 µM): 0.988
relative viability (SK-MES-1; first compound 0.6325 µM): 0.988
relative viability (SK-MES-1; first compound 2 µM): 1.02
relative viability (SK-MES-1; first compound 6.325 µM): 0.853
relative viability (SK-MES-1; first compound 20 µM): 0.848
relative viability (NCI-H1975; first compound 0.2 µM): 0.869
relative viability (NCI-H1975; first compound 0.6325 µM): 1.12
relative viability (NCI-H1975; first compound 2 µM): 0.796
relative viability (NCI-H1975; first compound 6.325 µM): 0.525
relative viability (NCI-H1975; first compound 20 µM): 0.546
relative viability (EKVX; first compound 0.2 µM): 1.03
relative viability (EKVX; first compound 0.6325 µM): 0.867
relative viability (EKVX; first compound 2 µM): 0.958
relative viability (EKVX; first compound 6.325 µM): 0.631
relative viability (EKVX; first compound 20 µM): 0.667
relative viability (NCI-H2087; first compound 0.2 µM): 0.935
relative viability (NCI-H2087; first compound 0.6325 µM): 0.833
relative viability (NCI-H2087; first compound 2 µM): 0.989
relative viability (NCI-H2087; first compound 6.325 µM): 0.693
relative viability (NCI-H2087; first compound 20 µM): 0.428
relative viability (COR-L 105; first compound 0.2 µM): 0.899
relative viability (COR-L 105; first compound 0.6325 µM): 1.04
relative viability (COR-L 105; first compound 2 µM): 0.898
relative viability (COR-L 105; first compound 6.325 µM): 0.962
relative viability (COR-L 105; first compound 20 µM): 0.796
relative viability (NCI-H441; first compound 0.2 µM): 0.612
relative viability (NCI-H441; first compound 0.6325 µM): 0.528
relative viability (NCI-H441; first compound 2 µM): 0.543
relative viability (NCI-H441; first compound 6.325 µM): 0.709
relative viability (NCI-H441; first compound 20 µM): 0.145
relative viability (H3255; first compound 0.2 µM): 0.901
relative viability (H3255; first compound 0.6325 µM): 0.918
relative viability (H3255; first compound 2 µM): 0.883
relative viability (H3255; first compound 6.325 µM): 0.637
relative viability (H3255; first compound 20 µM): 0.406
relative viability (NCI-H1792; first compound 0.2 µM): 0.551
relative viability (NCI-H1792; first compound 0.6325 µM): 0.438
relative viability (NCI-H1792; first compound 2 µM): 0.481
relative viability (NCI-H1792; first compound 6.325 µM): 0.383
relative viability (NCI-H1792; first compound 20 µM): 0.503
relative viability (NCI-H2085; first compound 0.2 µM): 1.04
relative viability (NCI-H2085; first compound 0.6325 µM): 0.912
relative viability (NCI-H2085; first compound 2 µM): 0.971
relative viability (NCI-H2085; first compound 6.325 µM): 0.815
relative viability (NCI-H2085; first compound 20 µM): 0.934
relative viability (NCI-H2009; first compound 0.2 µM): 1.25
relative viability (NCI-H2009; first compound 0.6325 µM): 1.18
relative viability (NCI-H2009; first compound 2 µM): 1.18
relative viability (NCI-H2009; first compound 6.325 µM): 1.06
relative viability (NCI-H2009; first compound 20 µM): 1.05
relative viability (CAL-12T; first compound 0.2 µM): 0.803
relative viability (CAL-12T; first compound 0.6325 µM): 0.677
relative viability (CAL-12T; first compound 2 µM): 0.695
relative viability (CAL-12T; first compound 6.325 µM): 0.634
relative viability (CAL-12T; first compound 20 µM): 0.225
relative viability (HCC-827; first compound 0.2 µM): 0.955
relative viability (HCC-827; first compound 0.6325 µM): 0.971
relative viability (HCC-827; first compound 2 µM): 0.959
relative viability (HCC-827; first compound 6.325 µM): 0.387
relative viability (HCC-827; first compound 20 µM): 0.741
relative viability (NCI-H460; first compound 0.2 µM): 0.791
relative viability (NCI-H460; first compound 0.6325 µM): 0.783
relative viability (NCI-H460; first compound 2 µM): 0.582
relative viability (NCI-H460; first compound 6.325 µM): 0.287
relative viability (NCI-H460; first compound 20 µM): 0.022
relative viability (NCI-H1355; first compound 0.2 µM): 0.812
relative viability (NCI-H1355; first compound 0.6325 µM): 0.882
relative viability (NCI-H1355; first compound 2 µM): 0.898
relative viability (NCI-H1355; first compound 6.325 µM): 0.74
relative viability (NCI-H1355; first compound 20 µM): 0.879
